Results on 17 compounds are retold here after patent publication US10604527B2, “Pyrazine compounds for the treatment of hepatitis B infection” (Hoffmann-La Roche Inc., priority 2016, dated 2020).

Broadly, the EC50 is the midpoint of the concentration-response curve.

For this assay, the system named is HBV. Nature of the assay: HBV inhibition assay in HepG2.2.15 cells (extracellular HBV DNA by qPCR). The class given is cell-based. The settings on record: Hepatitis B virus, 120 h, extracellular HBV DNA in culture supernatant by qPCR, five days after compound treatment. As for the experimental part: HepG2.2.15 is a stably-transfected cell line containing the HBV genome. It is derived from the hepatoblastoma cell line Hep G2 (American Type Culture Collection, ATCC® HB-8065™) by the published procedures described in reference: M A Selles et al. Proc. Natl. Acad. Sci. USA 1987, 84, 1005-1009. The cell line was maintained in Dulbecco's modified Eagle's medium (DMEM)-F12 medium supplemented with 10% fetal bovine serum, 20 mM L-glutamine, 0.1 mM NEAA, 50 U/mL penicillin, 50 μg/mL streptomycin, and 0.3 mg/mL of G418.
HepG2.2.15 cells were seeded into 96-well plates at a density of 3×10^4 cells per well in 100 μL DMEM/F12 media (Life Science, Cat. #: 11320-033) supplemented with 2.5% fetal bovine serum, 20 mM L-glutamine, 0.1 mM NEAA, 50 U/mL penicillin, 50 U/mL streptomycin and cultured overnight at 37° C. The test compounds were serially half-log diluted in DMSO, then diluted 100 times in culture media. 100 μL diluted solution of tested compounds were added into the plates to reach 0.5% final concentration of DMSO in every well. Five days after compound treatment, culture supernatant was collected for further analysis.
For quantitative PCR detection of extracellular HBV DNA, culture supernatant was processed by 500 μg/mL Proteinase K (Sigma, Cat. #: P2308) digestion at 50° C. for 1 hour. After heat inactivation of the enzyme at 95° C. for 15 minutes, the samples were subjected to HBV DNA quantification by qPCR. The effective compound concentration at which HBV replication inhibited by 50% (EC50) was determined.
A general note: Real-time PCR tracks product formation cycle by cycle.

`C[C@H]1Cn2ncc(S(=O)(=O)N3CC[C@@H](O)C3)c2CN1C(=O)Nc1cc(F)c(F)c(F)c1` [Example 29, (6S)-3-[(3R)-3-hydroxypyrrolidin-1-yl]sulfonyl-6-methyl-N-(3,4,5-trifluorophenyl)-6,7-dihydro-4H-pyrazolol[1,5-a]pyrazine-5-carboxamide]: the EC50 is 146 nM. The same measure for `C[C@H]1Cn2ncc(S(=O)(=O)N3CCC(F)(F)C3)c2CN1C(=O)Nc1cc(F)c(F)c(F)c1` [Example 28, (6S)-3-(3,3-difluoropyrrolidin-1-yl)sulfonyl-6-methyl-N-(3,4,5-trifluorophenyl)-6,7-dihydro-4H-pyrazolo[1,5-a]pyrazine-5-carboxamide]: 168 nM.

`C[C@H]1Cn2ncc(S(=O)(=O)N[C@@H]3CCOC3)c2CN1C(=O)Nc1cc(F)c(F)c(F)c1` [Example 30, (6S)-6-methyl-3-[[(3R)-tetrahydrofuran-3-yl]sulfamoyl]-N-(3,4,5-trifluorophenyl)-6,7-dihydro-4H-pyrazolo[1,5-a]pyrazine-5-carboxamide] came in with an EC50 of 156 nM. The EC50 values of the last two compounds are within 1.5-fold of each other. The same measure for `CC(C)NS(=O)(=O)c1cnn2c1CN(C(=O)Nc1ccc(F)c(Cl)c1)[C@@H](C)C2` [Example 25, (6S)-N-(3-chloro-4-fluoro-phenyl)-3-(isopropylsulfamoyl)-6-methyl-6,7-dihydro-4H-pyrazolo[1,5-a]pyrazine-5-carboxamide]: 82 nM; for `C[C@H]1Cn2ncc(S(=O)(=O)N3CC(F)(F)C3)c2CN1C(=O)Nc1cc(F)c(F)c(F)c1` [Example 31, (6S)-3-(3,3-difluoroazetidin-1-yl)sulfonyl-6-methyl-N-(3,4,5-trifluorophenyl)-6,7-dihydro-4H-pyrazolo[1,5-a]pyrazine-5-carboxamide]: 22 nM. In the case of `C[C@H]1Cn2ncc(OC3CCN(S(C)(=O)=O)CC3)c2CN1C(=O)Nc1ccc(F)c(Cl)c1` [Example 6, (6S)-N-(3-chloro-4-fluoro-phenyl)-6-methyl-3-[(1-methylsulfonyl-4-piperidyl)oxy]-6,7-dihydro-4H-pyrazolo[1,5-a]pyrazine-5-carboxamide], the response was half-maximal at 310 nM (EC50). Turning to `C[C@H]1Cn2ncc(S(=O)(=O)N3CC[C@H](O)C3)c2CN1C(=O)Nc1cc(F)c(F)c(F)c1` [Example 33, (6S)-3-[(3S)-3-hydroxypyrrolidin-1-yl]sulfonyl-6-methyl-N-(3,4,5-trifluorophenyl)-6,7-dihydro-4H-pyrazolo[1,5-a]pyrazine-5-carboxamide], the EC50 came to 145 nM. The same measure for `CC(C)S(=O)(=O)c1cnn2c1CN(C(=O)Nc1cc(F)c(F)c(F)c1)[C@@H](C)C2` [Example 20, (6S)-3-isopropylsulfonyl-6-methyl-N-(3,4,5-trifluorophenyl)-6,7-dihydro-4H-pyrazolo[1,5-a]pyrazine-5-carboxamide]: 21 nM. The compound `C[C@H]1Cn2ncc(S(=O)(=O)N3CCOCC3)c2CN1C(=O)Nc1cc(F)c(F)c(F)c1` [Example 32, (6S)-6-methyl-3-morpholinosulfonyl-N-(3,4,5-trifluorophenyl)-6,7-dihydro-4H-pyrazolo[1,5-a]pyrazine-5-carboxamide] came in with an EC50 of 179 nM. In the case of `C[C@H]1Cn2ncc(OC3CCOC3)c2CN1C(=O)Nc1ccc(F)c(Cl)c1` (stereo partly drawn) [Example 3, (6S)-N-(3-chloro-4-fluoro-phenyl)-6-methyl-3-tetrahydrofuran-3-yloxy-6,7-dihydro-4H-pyrazolo[1,5-a]pyrazine-5-carboxamide] it was 151 nM; in that of `C[C@H]1Cn2ncc(Oc3ccc(F)cn3)c2CN1C(=O)Nc1cc(F)c(F)c(F)c1` [Example 9, (6S)-3-[(5-fluoro-2-pyridyl)oxy]-6-methyl-N-(3,4,5-trifluorophenyl)-6,7-dihydro-4H-pyrazolo[1,5-a]pyrazine-5-carboxamide], 240 nM; in that of `C[C@H]1Cn2ncc(Oc3ccccn3)c2CN1C(=O)Nc1cc(F)c(F)c(F)c1` [Example 7, (6S)-6-methyl-3-(2-pyridyloxy)-N-(3,4,5-trifluorophenyl)-6,7-dihydro-4H-pyrazolo[1,5-a]pyrazine-5-carboxamide], 984 nM. Consider `CC1Cn2ncc(S(=O)(=O)C(C)C)c2CN1C(=O)Nc1ccc(F)c(Cl)c1` (centres unmarked) [Example 12, N-(3-chloro-4-fluoro-phenyl)-3-isopropylsulfonyl-6-methyl-6,7-dihydro-4H-pyrazolo[1,5-a]pyrazine-5-carboxamide], for which the EC50 was found to be 11 nM. This EC50 is about 89-fold lower than that of the compound before.

With `CC(C)Oc1cnn2c1CN(C(=O)Nc1ccc(F)c(Cl)c1)C(C)C2` (centres unmarked) [Example 1, N-(3-chloro-4-fluoro-phenyl)-3-isopropoxy-6-methyl-6,7-dihydro-4H-pyrazolo[1,5-a]pyrazine-5-carboxamide], the EC50 was 18 nM. For the compound `CC1Cn2ncc(S(=O)(=O)C3CCCC3)c2CN1C(=O)Nc1ccc(F)c(Cl)c1` (centres unmarked) [Example 11, N-(3-chloro-4-fluoro-phenyl)-3-cyclopentylsulfonyl-6-methyl-6,7-dihydro-4H-pyrazolo[1,5-a]pyrazine-5-carboxamide], the EC50 amounted to 11 nM. Compound `C[C@H]1Cn2ncc(OC3CCOCC3)c2CN1C(=O)Nc1ccc(F)c(Cl)c1` [Example 4, (6S)-N-(3-chloro-4-fluoro-phenyl)-6-methyl-3-tetrahydropyran-4-yloxy-6,7-dihydro-4H-pyrazolo[1,5-a]pyrazine-5-carboxamide] displayed an EC50 of 107 nM. In the case of `C[C@H]1Cn2ncc(N(C)C(=O)OCc3ccccc3)c2CN1C(=O)Nc1cc(F)c(F)c(F)c1` [Example 37, Benzyl N-methyl-N-[(6S)-6-methyl-5-[(3,4,5-trifluorophenyl)carbamoyl]-6,7-dihydro-4H-pyrazolo[1,5-a]pyrazin-3-yl]carbamate] it was 475 nM.
